# Test results reported in patent US8802696B2, “7-([1,2,4]triazolo[1,5-a]pyridin-6-yl)-4-(3,4-dichlorophenyl)-1,2,3,4-tetrahydroisoqu inoli and use thereof” (Albany Molecular Research, Inc., priority 2009, dated 2014).
# pIC50: −log10 of the molar value. Where a name gives a salt, the structure may show the parent alone.
# Assays:
# hSERT = target: T1, hSERT (Homo sapiens, UniProt P31645); test: SERT radioligand binding assay ([125I]RTI-55, HEK-293 membranes); conditions: recombinant HEK-293 membranes
# T1 construct: expressed in transfected cells; host or cells: HEK-293
# T1 sequence (P31645 whole entry): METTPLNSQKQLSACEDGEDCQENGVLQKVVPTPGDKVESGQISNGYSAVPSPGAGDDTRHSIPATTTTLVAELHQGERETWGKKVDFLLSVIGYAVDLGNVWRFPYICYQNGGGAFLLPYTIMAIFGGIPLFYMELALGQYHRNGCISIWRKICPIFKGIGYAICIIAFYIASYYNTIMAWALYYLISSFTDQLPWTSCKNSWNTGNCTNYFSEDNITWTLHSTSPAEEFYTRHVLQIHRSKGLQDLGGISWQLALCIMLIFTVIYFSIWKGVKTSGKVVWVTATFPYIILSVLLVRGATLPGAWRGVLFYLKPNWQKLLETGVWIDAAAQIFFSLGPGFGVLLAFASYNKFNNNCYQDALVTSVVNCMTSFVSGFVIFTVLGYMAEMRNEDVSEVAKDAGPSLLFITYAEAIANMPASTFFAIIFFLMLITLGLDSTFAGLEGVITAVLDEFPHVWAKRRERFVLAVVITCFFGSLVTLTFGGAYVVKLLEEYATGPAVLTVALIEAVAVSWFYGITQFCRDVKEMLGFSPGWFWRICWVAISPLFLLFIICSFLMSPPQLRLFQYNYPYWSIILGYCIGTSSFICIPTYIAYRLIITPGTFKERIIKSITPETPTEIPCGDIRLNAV
# Protocol: (§1) Recombinant HEK-293 cells expressing either the hSERT, hDAT, or hNET proteins were harvested from T-175 flasks as follows. The medium was removed from the flasks and the cells rinsed with HBSS without Ca and without Mg. The cells were then incubated for 5-10 minutes in 10 mM Tris-Cl, pH 7.5, 5 mM EDTA before the cells were lifted with a combination of pipetting and scraping, as needed. The cell suspension was collected into centrifuge bottles and homogenized for 30 seconds with a Polytron homogenizer. The suspension was centrifuged for 30 minutes at 32,000×g, 4° C. The supernatant was decanted and the pellet resuspended and homogenized in 50 mM Tris-Cl, pH 7.5, 1 mM EDTA for 10 seconds. The suspension was then centrifuged again for 30 minutes at 32,000×g, 4° C. The supernatant was decanted and the pellet resuspended in 50 mM Tris-Cl, pH 7.5, 1 mM EDTA and briefly homogenized. […]
# (§2) Compounds were dissolved in 100% DMSO at a concentration 100 times the desired highest assay concentration, serially diluted 1:3 in 100% DMSO, and 0.4 μl/well of each solution was dispensed to a Nunc polypropylene, round bottom, 384-well plate. […] The plates were air-dried overnight, 12 μl/well of MicroScint scintillation fluid added, and the plates counted in a Trilux.
# The radioligand concentration chosen for each assay corresponds to the Kd concentration determined through saturation binding analysis for each assay.
# hDAT = target: T2, hDAT (Homo sapiens, UniProt Q01959); test: DAT radioligand binding assay ([125I]RTI-55, HEK-293 membranes); conditions: recombinant HEK-293 membranes
# T2 construct: expressed in transfected cells; host or cells: HEK-293
# T2 sequence (Q01959 whole entry): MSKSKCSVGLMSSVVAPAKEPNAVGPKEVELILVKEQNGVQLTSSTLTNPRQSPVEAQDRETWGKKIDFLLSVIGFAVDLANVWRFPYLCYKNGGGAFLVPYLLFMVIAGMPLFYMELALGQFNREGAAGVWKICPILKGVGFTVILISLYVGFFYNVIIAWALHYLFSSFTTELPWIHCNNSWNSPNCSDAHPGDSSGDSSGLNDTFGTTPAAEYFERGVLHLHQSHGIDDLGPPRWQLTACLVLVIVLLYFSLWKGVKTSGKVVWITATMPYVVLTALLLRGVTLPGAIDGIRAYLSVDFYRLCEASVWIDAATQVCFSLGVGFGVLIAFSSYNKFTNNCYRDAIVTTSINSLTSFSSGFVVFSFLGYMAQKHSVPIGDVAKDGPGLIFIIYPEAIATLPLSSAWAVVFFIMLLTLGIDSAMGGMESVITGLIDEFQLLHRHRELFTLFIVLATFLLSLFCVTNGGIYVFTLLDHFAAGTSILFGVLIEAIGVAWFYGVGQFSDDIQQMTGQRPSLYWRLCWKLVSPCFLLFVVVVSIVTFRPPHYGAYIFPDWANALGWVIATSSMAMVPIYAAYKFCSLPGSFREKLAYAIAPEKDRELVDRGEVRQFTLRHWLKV
# Protocol: as §1, with “seconds.” for “seconds. The suspension was then centrifuged again for 30 minutes at 32,000×g, 4° C. The supernatant was decanted and the pellet resuspended in 50 mM Tris-Cl, pH 7.5, 1 mM EDTA and briefly homogenized.”
# as §2
# (§3) The raw data was normalized to percent inhibition using control wells defining 0% (DMSO only) and 100% (selective inhibitor) inhibition which were run on each plate. […] The radioligand concentration chosen for each assay corresponds to the Kd concentration determined through saturation binding analysis for each assay.
# hNET = target: T3, hNET (Homo sapiens, UniProt P23975); test: NET radioligand binding assay ([3H]nisoxetine, HEK-293 membranes); conditions: recombinant HEK-293 membranes
# T3 construct: expressed in transfected cells; host or cells: HEK-293
# T3 sequence (P23975 whole entry): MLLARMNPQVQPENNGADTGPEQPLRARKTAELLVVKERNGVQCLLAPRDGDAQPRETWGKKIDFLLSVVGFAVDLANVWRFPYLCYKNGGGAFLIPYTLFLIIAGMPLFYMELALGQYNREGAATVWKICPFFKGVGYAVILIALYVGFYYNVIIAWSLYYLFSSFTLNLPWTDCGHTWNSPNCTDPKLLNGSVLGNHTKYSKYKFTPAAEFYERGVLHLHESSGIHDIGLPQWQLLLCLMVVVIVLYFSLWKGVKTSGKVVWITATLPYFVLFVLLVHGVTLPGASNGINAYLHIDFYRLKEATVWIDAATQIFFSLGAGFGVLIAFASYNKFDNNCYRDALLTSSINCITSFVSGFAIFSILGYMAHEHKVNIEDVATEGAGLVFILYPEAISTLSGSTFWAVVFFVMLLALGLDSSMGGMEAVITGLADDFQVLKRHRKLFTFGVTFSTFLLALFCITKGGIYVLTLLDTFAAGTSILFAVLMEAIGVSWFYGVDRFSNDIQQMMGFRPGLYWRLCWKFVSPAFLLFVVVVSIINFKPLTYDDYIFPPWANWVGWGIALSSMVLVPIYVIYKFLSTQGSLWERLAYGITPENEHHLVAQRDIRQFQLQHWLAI
# Protocol: as §1, with “seconds.” for “seconds. The suspension was then centrifuged again for 30 minutes at 32,000×g, 4° C. The supernatant was decanted and the pellet resuspended in 50 mM Tris-Cl, pH 7.5, 1 mM EDTA and briefly homogenized.”
# as §2, with “1.0” for “0.4”
# as §3
# SERT = test: Ex vivo binding occupancy assay, SERT ([3H]citalopram, brain tissue); conditions: dose 1 mg/kg, time point 3 hour, ex vivo binding in brain tissue
# Description: The general procedure for brain tissue collection and transporter occupancy assessment is briefly described as follows. Mice were sacrificed by asphyxiation in CO2, rats by decapitation and dogs by IV injection of euthanasia solution. For mice and rats, after the brains were removed from the skull, the forebrain tissue (removal of the brainstem and cerebellum) was used for SERT, NET, and DAT occupancy assessment. In dogs, the striatum was dissected for DAT occupancy and the remaining forebrain tissue (without the striatum, brainstem, and cerebellum) was used for SERT and NET occupancy assessment. The brain tissues were frozen in chilled isopentane and stored at −80° C. until homogenization.
# The brain tissues were thawed and then homogenized using a polytron homogenizer (Kinematica). Sample aliquots were frozen immediately and stored at −80° C. Protein content was measured for each sample using a Coomassie protein assay kit (Pierce).
# On the day of ex vivo binding for occupancy assessment, frozen sample aliquots were thawed and needle homogenized, and 100 μg of the tissue was incubated for SERT, NET, and DAT binding under assay conditions summarized in Table 1. […] Radioligand was measured using a Wallac Microbeta liquid scintillation counter.
# The specific binding was calculated by subtracting the value of the non-specific binding from that of the total binding in each sample. […]
Compound,pIC50 (hSERT),pIC50 (hDAT),pIC50 (hNET),SERT Occupancy % (SERT),SERT Occupancy % (SERT; L-tartrate salt)
"Clc1ccc(C2CNCc3cc(-c4ccc5ncnn5c4)ccc32)cc1Cl (single isomer, unassigned; (-)) [Example 1 (−)-enantiomer, (−)-7-([1,2,4]triazolo[1,5-a]pyridin-6-yl)-4-(3,4-dichlorophenyl)-1,2,3,4-tetrahydroisoquinoline]",8.38,6.98,8.32,41%,–
"Clc1ccc(C2CNCc3cc(-c4ccc5ncnn5c4)ccc32)cc1Cl (single isomer, unassigned; enantiomer 7) [Example 1 (+)-enantiomer, 7-([1,2,4]triazolo[1,5-a]pyridin-6-yl)-4-(3,4-dichlorophenyl)-1,2,3,4-tetrahydroisoquinoline, L-tartrate salt]",8.74,7.51,7.59,–,75%
